Reference: patent US8632792B2, “Cooling sensation agent composition and sensory stimulation agent composition” (Takasago International Corporation, priority 2008, dated 2014)

Tested on: internal bronchia
Test: Cooling towel (washing processed), organoleptic ranking of cooling action
Assay type: in vivo
Settings: Group A; 6 hr; 1% in base washing detergent; low sum = strong
Text: Each of di-1-menthyl carbonate, di-1-isopulegol carbonate, 1-menthyl-1-menthoxy ethyl carbonate, 1-menthyl-1-isopulegol carbonate, 1-menthoxypropanediol benzaldehyde acetal, 1-menthoxypropanediol methylheptenone ketal, 1-menthoxypropanediol-1-citronellal acetal, menthyl palmitate, menthyl stearate, menthyl isostearate, 1-menthoxypropanediol, and an equivalent-weight mixture of 1-menthyl-menthoxy ethyl carbonate, menthoxypropanediol citronellal acetal and menthyl isostearate was compounded with a base washing detergent solution at a concentration of 1%.
A pure cotton hand towel (white plain towel made in Japan, 20 cm×20 cm, degrease-finished) was hand-washed for 3 minutes at a particular concentration (water: 10 L, detergent: 3 g, water temperature: 17° C.), then washed with the same amount of water for 2 minutes, squeezed lightly, and air-dried indoor for 6 hours. The hand towels prepared, the hand towels after 24 hours and the hand towels after 48 hours were brought into contact with the internal bronchia and the cooling action thereof was determined organoleptically. The determination was conducted as same as Example 1, that is, […] professional examiners are divided into three groups; different 5 kinds of samples were ranked from the strongest to weakest in action respectively by the examiners in three groups; and the result was shown by the sum of the ranking numbers.

Row | Compound | sum of the ranking numbers (cooling effect on treated hand towel after washing)
1 | CC(C)[C@@H]1CC[C@@H](C)C[C@H]1O [l-Menthol, 1-menthol, reference compound] | 25
2 | C=C(C)[C@@H]1CC[C@@H](C)C[C@H]1OC(=O)O[C@@H]1C[C@H](C)CC[C@H]1C(C)C [l-Menthyl-l-isopulegol carbonate, 1-menthyl-1-isopulegol carbonate] | 12
3 | CC(C)[C@@H]1CC[C@@H](C)C[C@H]1OCCOC(=O)O[C@@H]1C[C@H](C)CC[C@H]1C(C)C [l-Menthyl-l-menthoxy ethyl carbonate, 1-menthyl-1-menthoxy ethyl carbonate] | 8

Same assay, conditions: Group A; 24 hr; 1% in base washing detergent; low sum = strong

Row | Compound | sum of the ranking numbers (cooling effect on treated hand towel after washing)
4 | CC(C)[C@@H]1CC[C@@H](C)C[C@H]1O [l-Menthol, 1-menthol, reference compound] | 25
5 | C=C(C)[C@@H]1CC[C@@H](C)C[C@H]1OC(=O)O[C@@H]1C[C@H](C)CC[C@H]1C(C)C [l-Menthyl-l-isopulegol carbonate, 1-menthyl-1-isopulegol carbonate] | 12
6 | CC(C)[C@@H]1CC[C@@H](C)C[C@H]1OCCOC(=O)O[C@@H]1C[C@H](C)CC[C@H]1C(C)C [l-Menthyl-l-menthoxy ethyl carbonate, 1-menthyl-1-menthoxy ethyl carbonate] | 7

Same assay, conditions: Group A; 48 hr; 1% in base washing detergent; low sum = strong

Row | Compound | sum of the ranking numbers (cooling effect on treated hand towel after washing)
7 | CC(C)[C@@H]1CC[C@@H](C)C[C@H]1O [l-Menthol, 1-menthol, reference compound] | 25
8 | C=C(C)[C@@H]1CC[C@@H](C)C[C@H]1OC(=O)O[C@@H]1C[C@H](C)CC[C@H]1C(C)C [l-Menthyl-l-isopulegol carbonate, 1-menthyl-1-isopulegol carbonate] | 11
9 | CC(C)[C@@H]1CC[C@@H](C)C[C@H]1OCCOC(=O)O[C@@H]1C[C@H](C)CC[C@H]1C(C)C [l-Menthyl-l-menthoxy ethyl carbonate, 1-menthyl-1-menthoxy ethyl carbonate] | 7

Same assay, conditions: Group B; 6 hr; 1% in base washing detergent; low sum = strong

Row | Compound | sum of the ranking numbers (cooling effect on treated hand towel after washing)
10 | CC(C)[C@@H]1CC[C@@H](C)C[C@H]1O [l-Menthol, 1-menthol, reference compound] | 25

Same assay, conditions: Group B; 24 hr (third time point); 1% in base washing detergent; low sum = strong

Row | Compound | sum of the ranking numbers (cooling effect on treated hand towel after washing)
11 | CC(C)[C@@H]1CC[C@@H](C)C[C@H]1O [l-Menthol, 1-menthol, reference compound] | 25

Same assay, conditions: Group B; 24 hr; 1% in base washing detergent; low sum = strong

Row | Compound | sum of the ranking numbers (cooling effect on treated hand towel after washing)
12 | CC(C)[C@@H]1CC[C@@H](C)C[C@H]1O [l-Menthol, 1-menthol, reference compound] | 25

Same assay, conditions: washing processed towel; comparison within the compound class

Row | Compound | cooling action (in words), strength and durability
13 | CC(C)[C@@H]1CC[C@@H](C)C[C@H]1OCCOC(=O)O[C@@H]1C[C@H](C)CC[C@H]1C(C)C [l-Menthyl-l-menthoxy ethyl carbonate, 1-menthyl-1-menthoxy ethyl carbonate] | strongest

Tested on: professional examiners
Test: Cooling treated towel (direct spraying), organoleptic ranking of cooling action
Assay type: in vivo
Settings: Group A; air-dried 10 min; 1 g of 1% ethanol solution sprayed on cotton towel; ranked strongest to weakest (low sum = strong)
Text: 1% ethanol solution of each of di-1-menthyl carbonate, di-1-isopulegol carbonate, 1-menthyl-1-menthoxy ethyl carbonate, 1-menthyl-1-isopulegol carbonate, 1-menthoxypropanediol methylheptenone ketal, 1-menthoxypropanediol benzaldehyde acetal, 1-menthoxypropanediol-l-citronellal acetal, menthyl palmitate, menthyl stearate, menthyl isostearate, 1-menthol, and an equivalent-weight mixture of 1-menthyl-menthoxy ethyl carbonate, menthoxypropanediol citronellal acetal and menthyl isostearate was prepared. The solution was sprayed on a pure cotton hand towel (white plain towel made in Japan, 20 cm×20 cm, degrease-finished) in an amount of 1 g. After the towel was air-dried for 10 minutes, 3 hours, or 24 hours, the cooling action of each towel was determined organoleptically. Fifteen professional examiners with 5 years or more of experience are divided into three groups; different 5 kinds of samples were ranked from the strongest to weakest in action respectively by the examiners in three groups; and the result was shown by the sum of the ranking numbers.

Row | Compound | sum of the ranking numbers (cooling effect on treated hand towel at direct spraying)
14 | CC(C)[C@@H]1CC[C@@H](C)C[C@H]1O [l-Menthol, 1-menthol, reference compound] | 5
15 | C=C(C)[C@@H]1CC[C@@H](C)C[C@H]1OC(=O)O[C@@H]1C[C@H](C)CC[C@H]1C(C)C [l-Menthyl-l-isopulegol carbonate, 1-menthyl-1-isopulegol carbonate] | 19
16 | CC(C)[C@@H]1CC[C@@H](C)C[C@H]1OCCOC(=O)O[C@@H]1C[C@H](C)CC[C@H]1C(C)C [l-Menthyl-l-menthoxy ethyl carbonate, 1-menthyl-1-menthoxy ethyl carbonate] | 10

Same assay, conditions: Group A; air-dried 3 hr; 1% ethanol solution; low sum = strong

Row | Compound | sum of the ranking numbers (cooling effect on treated hand towel at direct spraying)
17 | CC(C)[C@@H]1CC[C@@H](C)C[C@H]1O [l-Menthol, 1-menthol, reference compound] | 24
18 | C=C(C)[C@@H]1CC[C@@H](C)C[C@H]1OC(=O)O[C@@H]1C[C@H](C)CC[C@H]1C(C)C [l-Menthyl-l-isopulegol carbonate, 1-menthyl-1-isopulegol carbonate] | 1
19 | CC(C)[C@@H]1CC[C@@H](C)C[C@H]1OCCOC(=O)O[C@@H]1C[C@H](C)CC[C@H]1C(C)C [l-Menthyl-l-menthoxy ethyl carbonate, 1-menthyl-1-menthoxy ethyl carbonate] | 5

Same assay, conditions: Group A; air-dried 24 hr; 1% ethanol solution; low sum = strong

Row | Compound | sum of the ranking numbers (cooling effect on treated hand towel at direct spraying)
20 | CC(C)[C@@H]1CC[C@@H](C)C[C@H]1O [l-Menthol, 1-menthol, reference compound] | 25
21 | C=C(C)[C@@H]1CC[C@@H](C)C[C@H]1OC(=O)O[C@@H]1C[C@H](C)CC[C@H]1C(C)C [l-Menthyl-l-isopulegol carbonate, 1-menthyl-1-isopulegol carbonate] | 14
22 | CC(C)[C@@H]1CC[C@@H](C)C[C@H]1OCCOC(=O)O[C@@H]1C[C@H](C)CC[C@H]1C(C)C [l-Menthyl-l-menthoxy ethyl carbonate, 1-menthyl-1-menthoxy ethyl carbonate] | 5

Same assay, conditions: Group B; air-dried 10 min; 1% ethanol solution; low sum = strong

Row | Compound | sum of the ranking numbers (cooling effect on treated hand towel at direct spraying)
23 | CC(C)[C@@H]1CC[C@@H](C)C[C@H]1O [l-Menthol, 1-menthol, reference compound] | 5

Same assay, conditions: Group B; air-dried 3 hr; 1% ethanol solution; low sum = strong

Row | Compound | sum of the ranking numbers (cooling effect on treated hand towel at direct spraying)
24 | CC(C)[C@@H]1CC[C@@H](C)C[C@H]1O [l-Menthol, 1-menthol, reference compound] | 25

Same assay, conditions: Group B; air-dried 24 hr; 1% ethanol solution; low sum = strong

Row | Compound | sum of the ranking numbers (cooling effect on treated hand towel at direct spraying)
25 | CC(C)[C@@H]1CC[C@@H](C)C[C@H]1O [l-Menthol, 1-menthol, reference compound] | 25

Same assay, conditions: direct spraying; after air drying for 10 minutes

Row | Compound | cooling action (in words)
26 | CC(C)[C@@H]1CC[C@@H](C)C[C@H]1O [l-Menthol, 1-menthol, reference compound] | strongest cooling action

Same assay, conditions: direct spraying; comparison over 10 min to 24 hr, within the compound class

Row | Compound | cooling action (in words), strength and consistency
27 | CC(C)[C@@H]1CC[C@@H](C)C[C@H]1O [l-Menthol, 1-menthol, reference compound] | less consistent
28 | CC(C)[C@@H]1CC[C@@H](C)C[C@H]1OCCOC(=O)O[C@@H]1C[C@H](C)CC[C@H]1C(C)C [l-Menthyl-l-menthoxy ethyl carbonate, 1-menthyl-1-menthoxy ethyl carbonate] | superior both in initial strength and consistency
